Test [1] deals with T47D (PI3Kα-H1047R) cell line. Briefly: HTRF phospho-AKT(S473) cell assay in T47D cells. It is filed as cell-based, human. Put shortly:
(§1)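 T47D (PI3Kα-H1047R; RPMI, 10% FBS, insulin) and SKBR3 (wild-type PI3Kα; McCoy's 5A, 10% FBS) cells treated 2 h at 37 °C with 12-point 1:3 dilutions, top 5 μM and 10 μM respectively, ≤0.5% DMSO. SKBR3 stimulated with 70 ng/ml PDGF-BB for the last 15 min; lysate pAKT(S473) by HTRF, IC50 from curves.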
(Time-resolved FRET reads energy transfer from a long-lived donor to a nearby acceptor.)

The test system of test [2] is SKBR3 (PI3Kα-Wild Type) cell line. As to the kind of experiment: HTRF phospho-AKT(S473) cell assay in SKBR3 cells. The format is cell-based, human. Put shortly: as §1
Setting [3] is: Homo sapiens; HTRF phospho-AKT(S473), T47D (PI3Kα-H1047R) cells, 2 hours compound incubation.
[4] abbreviates: Homo sapiens, SK-BR-3; HTRF phospho-AKT(S473), SKBR3 (PI3Kα-Wild Type) cells, 2 hours compound incubation, PDGF-BB stimulated.
[5] abbreviates: Homo sapiens; T47D (PI3Kα-H1047R) cells, HTRF phospho-AKT(S473), 2 hours compound incubation.
Where [6] appears, read: Homo sapiens, SK-BR-3; SKBR3 (PI3Kα-Wild Type) cells, HTRF phospho-AKT(S473), 2 hours compound incubation, PDGF-BB stimulated.

One may read the IC50 as the concentration that inhibits the measured activity by half. A higher IC50 goes with a need for much substance. Consider `Cc1ccc(N2C[C@@H]3C[C@H]2CN3c2nc3c([C@@H](C)Nc4ccc(Cl)nc4C(=O)NS(C)(=O)=O)cc(C)cc3c(=O)n2C)nc1` [Compound 663, 6-chloro-3-(((R)-1-(3,6-dimethyl-2-((1S,4S)-5-(5-methylpyridin-2-yl)-2,5-diazabicyclo [2.2.1]heptan-2-yl)-4-oxo-3,4-dihydroquinazolin-8-yl)ethyl)amino)-N-(methylsulfonyl) picolinamide], for which the results for the IC50 in test [1] (setting [3]) and in test [2] (setting [4]) were 500 to 1000 nM and above 5 µM, respectively.

In the case of `Cc1cc([C@@H](C)Nc2ccc(Cl)nc2C(=O)NS(C)(=O)=O)c2nc(C3CCN(c4ccc(C#N)nc4)CC3)n(C)c(=O)c2c1` [Compound 180, (R)-6-chloro-3-((1-(2-(1-(6-cyanopyridin-3-yl)piperidin-4-yl)-3,6-dimethyl-4-oxo-3,4-dihydroquinazolin-8-yl)ethyl)amino)-N-(methylsulfonyl) picolinamide], the figures for the half-inhibitory concentration (IC50) in test [1] (setting [5]) and in test [2] (setting [6]) were below 250 nM and 1 to 5 µM, respectively.

Take `Cc1cc([C@@H](C)Nc2ccc(Cl)nc2C(=O)NS(C)(=O)=O)c2nc(N3C[C@H]4CC4(c4cnc(C)cn4)C3)n(C)c(=O)c2c1` (relative stereo) [Compound 749, 6-chloro-3-(((R)-1-(3,6-dimethyl-2-((1R*,5S*)-1-(5-methylpyrazin-2-yl)-3-azabicyclo[3.1.0]hexan-3-yl)-4-oxo-3,4-dihydroquinazolin-8-yl)ethyl)amino)-N-(methylsulfonyl) picolinamide]: the IC50 was 250 to 500 nM in test [1] (setting [3]) and at least 5 µM in test [2] (setting [4]).

For the molecule `COc1cc(N2C[C@H]3C[C@@H]2CN3c2nc3c([C@@H](C)Nc4ccc(Cl)nc4C(=O)NS(C)(=O)=O)cc(C)cc3c(=O)n2C)ccn1` [Compound 639, 6-chloro-3-(((R)-1-(2-((1R,4R)-5-(2-methoxypyridin-4-yl)-2,5-diazabicyclo [2.2.1]heptan-2-yl)-3,6-dimethyl-4-oxo-3,4-dihydroquinazolin-8-yl)ethyl)amino)-N-(methylsulfonyl) picolinamide], the values for the IC50 in test [1] (setting [3]) and in test [2] (setting [4]) were 500 to 1000 nM and at least 5 µM, respectively.

On to `Cc1cc([C@@H](C)Nc2ccc(Cl)nc2C(=O)NS(C)(=O)=O)c2nc(N3CCC(c4cncc(C)n4)CC3)n(C)c(=O)c2c1` [Compound 399, (R)-6-chloro-3-((1-(3,6-dimethyl-2-(4-(6-methylpyrazin-2-yl)piperidin-1-yl)-4-oxo-3,4-dihydroquinazolin-8-yl)ethyl)amino)-N-(methylsulfonyl) picolinamide], for which the concentration for half-maximal inhibition (IC50) in test [1] (setting [5]) was below 250 nM; in test [2] (setting [6]) it was at least 5 µM.

With `Cc1cc([C@@H](C)Nc2ccc(Cl)nc2C(=O)NS(C)(=O)=O)c2nc(N3C[C@H]4C[C@@H](c5cc[nH]n5)[C@@H]3C4)n(C)c(=O)c2c1` (single isomer, unassigned) [Compound 346, 3-(((R)-1-(2-((1S,4S,6R*)-6-(1H-pyrazol-3-yl)-2-azabicyclo[2.2.1]heptan-2-yl)-3,6-dimethyl-4-oxo-3,4-dihydroquinazolin-8-yl)ethyl)amino)-6-chloro-N-(methylsulfonyl) picolinamide], the IC50 in test [1] (setting [5]) was 250 to 500 nM; in test [2] (setting [6]), at least 5 µM.

In the case of `Cc1cc([C@@H](C)Nc2ccc(Cl)nc2C(=O)NS(C)(=O)=O)c2nc(N3CCC[C@H](c4ccn(C(F)F)n4)C3)n(C)c(=O)c2c1` (relative stereo) [Compound 770, 6-chloro-3-(((R)-1-(2-((R*)-3-(1-(difluoromethyl)-1H-pyrazol-3-yl)piperidin-1-yl)-3,6-dimethyl-4-oxo-3,4-dihydroquinazolin-8-yl)ethyl)amino)-N-(methylsulfonyl) picolinamide], the IC50 is 250 to 500 nM in test [1] (setting [3]) and at least 5 µM in test [2] (setting [4]).

Consider `COc1ncc([C@H]2[C@@H]3CN(c4nc5c([C@@H](C)Nc6ccc(Cl)nc6C(=O)NS(C)(=O)=O)cc(C)cc5c(=O)n4C)C[C@@H]32)cn1` [Compound 483, 6-chloro-3-(((R)-1-(2-((1R,5S,6S)-6-(2-methoxypyrimidin-5-yl)-3-azabicyclo[3.1.0]hexan-3-yl)-3,6-dimethyl-4-oxo-3,4-dihydroquinazolin-8-yl)ethyl)amino)-N-(methylsulfonyl) picolinamide], for which the IC50 in test [1] (setting [3]) was below 250 nM; in test [2] (setting [4]), 1 to 5 µM.
